Experimental data reported in ChEMBL document CHEMBL6182948 (J Med Chem, 2025).

Columns and labels:
[1] = Half life in male Sprague-Dawley rat at 10 mg/kg, po measured up to 24 hrs by LC-MS/MS analysis; assay type: ADME, organism-based; details: in vivo
[2] = Clearance in male Sprague-Dawley rat at 2 mg/kg, iv measured up to 24 hrs by LC-MS/MS analysis; assay type: ADME, organism-based; details: in vivo
[3] = Apparent volume of distribution in male Sprague-Dawley rat at 2 mg/kg, iv measured up to 24 hrs by LC-MS/MS analysis; assay type: ADME, organism-based; details: in vivo, read-out: Vz
[4] = test system: A549/TR; test: Synergistic antiproliferative activity against human A549/Taxol cells assessed as combination index at 20 uM in presence of 0.1 uM paclitaxel by Chou-Talalay method; assay type: functional
[5] = test system: A549/TR; test: Inhibition of cell invasion in human A549/Taxol cells assessed as invasive cells at 2.5 uM incubated for 24 hrs by transwell invasion assay relative to control; assay type: functional; parameters: scale not given: the % may be the effect or the level left
[6] = test system: A549/TR; test: Synergistic antiproliferative activity against human A549/Taxol cells assessed as combination index at 20 uM in presence of 0.05 uM paclitaxel by Chou-Talalay method; assay type: functional
[7] = AUC (0 to t) in male Sprague-Dawley rat at 10 mg/kg, po measured up to 24 hrs by LC-MS/MS analysis; assay type: ADME, organism-based; details: in vivo
[8] = Cmax in male Sprague-Dawley rat at 10 mg/kg, po measured up to 24 hrs by LC-MS/MS analysis; assay type: ADME, organism-based; details: in vivo
[9] = test system: A549/TR; test: Synergistic antiproliferative activity against human A549/Taxol cells assessed as combination index at 20 uM in presence of 0.5 uM paclitaxel by Chou-Talalay method; assay type: functional
[10] = test system: A549/TR; test: Synergistic antiproliferative activity against human A549/Taxol cells assessed as combination index at 10 uM in presence of 0.1uM paclitaxel by Chou-Talalay method; assay type: functional
[11] = MRT (0 to infinity) in male Sprague-Dawley rat at 2 mg/kg, iv measured up to 24 hrs by LC-MS/MS analysis; assay type: ADME, organism-based; details: in vivo
[12] = Half life in male Sprague-Dawley rat at 2 mg/kg, iv measured up to 24 hrs by LC-MS/MS analysis; assay type: ADME, organism-based; details: in vivo
[13] = Oral bioavailability in male Sprague-Dawley rat at 10 mg/kg measured up to 24 hrs by LC-MS/MS analysis; assay type: ADME, organism-based; details: in vivo
[14] = test system: A549/TR; test: Synergistic antiproliferative activity against human A549/Taxol cells assessed as combination index at 2.5 uM in presence of 0.1 uM paclitaxel by Chou-Talalay method; assay type: functional
[15] = test system: A549/TR; test: Synergistic antiproliferative activity against human A549/Taxol cells assessed as combination index at 10 uM in presence of 0.05 uM paclitaxel by Chou-Talalay method; assay type: functional
[16] = Cmax in male Sprague-Dawley rat at 2 mg/kg, iv measured up to 24 hrs by LC-MS/MS analysis; assay type: ADME, organism-based; details: in vivo
[17] = Tmax in male Sprague-Dawley rat at 2 mg/kg, iv measured up to 24 hrs by LC-MS/MS analysis; assay type: ADME, organism-based; details: in vivo
[18] = test system: A549/TR; test: Inhibition of cell invasion in human A549/Taxol cells assessed as reduction in cell migration incubated for 24 hrs by transwell invasion assay relative to control; assay type: functional, cell-based; details: dose 2.5-10 µM
[19] = MRT (0 to infinity) in male Sprague-Dawley rat at 10 mg/kg, po measured up to 24 hrs by LC-MS/MS analysis; assay type: ADME, organism-based; details: in vivo
[20] = test system: A549/TR; test: Synergistic antiproliferative activity against human A549/Taxol cells assessed as combination index at 10 uM in presence of 0.5 uM paclitaxel by Chou-Talalay method; assay type: functional
[21] = test system: A549/TR; test: Synergistic antiproliferative activity against human A549/Taxol cells assessed as combination index at 20 uM in presence of 0.025 uM paclitaxel by Chou-Talalay method; assay type: functional
[22] = test system: A549/TR; test: Synergistic antiproliferative activity against human A549/Taxol cells assessed as combination index at 5 uM in presence of 0.5 uM paclitaxel by Chou-Talalay method; assay type: functional
[23] = test system: A549/TR; test: Synergistic antiproliferative activity against human A549/Taxol cells assessed as combination index at 5 uM in presence of 0.05 uM paclitaxel by Chou-Talalay method; assay type: functional

half-life [1]: 1.12 h
clearance [2]: 14.7 mL/min/kg
Vd [3]: 4.77 L/kg
AUC(0-t) at 24 h [7]: 236 ng·h/mL
Cmax [8]: 81 ng/mL
MRT inf [11]: 0.73 h
half-life [12]: 3.78 h
bioavailability [13]: 2.08%
Cmax [16]: 4750 ng/mL
Tmax [17]: 4.8 min
MRT inf [19]: 2.42 h
SMILES: O=C(Nc1cc(Cl)cc(Cl)c1)c1nc(-c2cccc(Cl)c2)cs1
CI [4]: 0.63
Activity [5]: 35.7%
CI [6]: 0.38
CI [9]: 2.15
CI [10]: 0.47
CI [14]: 0.09
CI [15]: 0.2
inhibition [18]: Dose-dependent-effect
CI [20]: 1.14
CI [21]: 0.63
CI [22]: 0.48
CI [23]: 0.16
